Target: T1, PfnPrx (His6-nPrx1-164) (Plasmodium falciparum, UniProt Q8IJD0)
T1 sequence (Q8IJD0 1-164): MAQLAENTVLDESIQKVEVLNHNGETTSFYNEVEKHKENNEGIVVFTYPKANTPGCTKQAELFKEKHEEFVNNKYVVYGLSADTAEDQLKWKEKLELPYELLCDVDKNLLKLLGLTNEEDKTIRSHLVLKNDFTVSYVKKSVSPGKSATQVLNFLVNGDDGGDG
Experiment: NADPH oxidation at […] nm, coupled to glutathione reductase/GSH/PfGrx1
Type: biochemical
Conditions: read-out: apparent Km; 10 μM PfGrx1, 1 mM GSH, 200 μM NADPH, 100 mM HEPES pH 7.6, 1 mM EDTA, 25 °C

`CC(C)(OO)c1ccccc1` [cumene hydroperoxide] showed a Km of about 30 µM.

Source: paper PMC3064226 (The Journal of Biological Chemistry, 2011)
